Key:
Format in all cases: in vivo, mouse
Details in all cases: aged C57BL/6 mice, 25 mg/kg p.o. each substance, 90 days
AMPK = AMPK ELISA in lung tissue homogenate of aged mice
Protocol: The experiments were performed in old C57b1/6 mice (28-30 weeks). Table 1 discloses the groups of mice used for the experimentation. C57BL/6 mice were bred and naturally aged in a pathogen-free colony. Mice were group-housed six per cage for the treatment regimen and maintained on a 12-hr light-dark schedule with ad libitum access to food and water. All experiments were designed according to the principles of animal use for gerontological research (Miller, R. A., & Nadon, N. L. (2000). Principles of animal use for gerontological research. Journals of Gerontology. Series A, Biological Sciences and Medical Sciences, 55, B117-B123)
The above test substances were administered to the mice for a period of 90 days. Rapamycin was used as a positive control. After 90 days of administration experiments were performed to assess the respiratory muscle function, anatomical changes, cellular senescence and immunological changes.
Activation of AMPK delays senescence. Abnormal autophagy and aging promote each other, and AMPK is an important regulator of this process. AMPK is involved in the transduction of several aging-related signaling pathways. AMPK intervenes in the development of many age-related diseases.

SIRT1 = SIRT1 ELISA in lung tissue homogenate of aged mice
Protocol: The experiments were performed in old C57b1/6 mice (28-30 weeks). Table 1 discloses the groups of mice used for the experimentation. C57BL/6 mice were bred and naturally aged in a pathogen-free colony. Mice were group-housed six per cage for the treatment regimen and maintained on a 12-hr light-dark schedule with ad libitum access to food and water. All experiments were designed according to the principles of animal use for gerontological research (Miller, R. A., & Nadon, N. L. (2000). Principles of animal use for gerontological research. Journals of Gerontology. Series A, Biological Sciences and Medical Sciences, 55, B117-B123) [table] The above test substances were administered to the mice for a period of 90 days. Rapamycin was used as a positive control. After 90 days of administration experiments were performed to assess the respiratory muscle function, anatomical changes, cellular senescence and immunological changes. A number of cellular mechanisms and alterations constitute the hallmarks of cellular senescence. These include a stable cell cycle arrest chromatin alteration & reorganization; Inhibition of Sirt-1. Inhibition of AMPK and Dysregulation of mTOR. Silencing information regulator 2 related enzyme 1 (sirtuin1, SIRT1) is an NAD+-dependent deacetylase, which is involved in the regulation of cellular senescence and aging. The expression of SIRT1 is diminished with aging in mice. […]

old C57b1/6 mice = assay: Minute ventilation by whole-body plethysmography in aged mice
Protocol: The experiments were performed in old C57b1/6 mice (28-30 weeks). Table 1 discloses the groups of mice used for the experimentation. C57BL/6 mice were bred and naturally aged in a pathogen-free colony. Mice were group-housed six per cage for the treatment regimen and maintained on a 12-hr light-dark schedule with ad libitum access to food and water. All experiments were designed according to the principles of animal use for gerontological research (Miller, R. A., & Nadon, N. L. (2000). Principles of animal use for gerontological research. Journals of Gerontology. Series A, Biological Sciences and Medical Sciences, 55, B117-B123) [table] The above test substances were administered to the mice for a period of 90 days. […] The respiratory muscle function in the study animals was assessed by estimating the Tidal Volume, Minute ventilation, Transdiaphragmatic pressure ([…]) and Respiratory rate. […] In the present study, ventilatory parameters were measured in awake mice during eupnoea (spontaneous breathing of room air) using a whole-body plethysmography system. […] Recordings were taken after 10 min of acclimatization and recorded for one hour. Recorded parameters included tidal volume and minute ventilation Minute ventilation-Minute ventilation is the amount of air inhaled or exhaled from a person's lungs in one minute is an important measurement that's related to tidal volume. […]

O=C(/C=C/c1ccc(O)c(O)c1)O[C@H](Cc1ccc(O)c(O)c1)C(=O)O [Rosmarinic acid]
AMPK levels (AMPK): increased | expression of SIRT1 (SIRT1): increased | minute ventilation (old C57b1/6 mice; versus old mice control): increase | minute ventilation, comparison between treatment groups (old C57b1/6 mice; Rapamycin 8 mg/kg p.o. positive control): better improvement than control, and Rapamycin

— patent US20250090614A1, “COMPOSITIONS AND METHODS FOR IMPROVING LUNG FUNCTION” (priority 2023, published 2025)
